This note sets out measurements from ChEMBL document CHEMBL4270670 (J Med Chem, 2018).

Series [1] concerns Influenza A virus. Kind of series: Antiviral activity against Influenza A virus H5N2 infected in specific pathogen free embryonated egg assessed as survival rate at 10 mM preincubated for 1 hr prior to inoculation measured after 48 hrs (reference value: 0%). The class given is functional.
Series [2] deals with Influenza A virus. Briefly: Antiviral activity against Influenza A virus H5N2 infected in specific pathogen free embryonated egg assessed as survival rate at 2.5 mM preincubated for 1 hr prior to inoculation measured after 48 hrs (reference value: 0%). It counts as functional.
The subject of series [3] is Influenza A virus. Kind of series: Antiviral activity against Influenza A virus H5N2 infected in specific pathogen free embryonated egg assessed as survival rate at 0.625 mM preincubated for 1 hr prior to inoculation measured after 48 hrs (reference value: 0%). It counts as functional.
The subject of series [4] is Influenza A virus. Kind of series: Antiviral activity against Influenza A virus H5N2 infected in specific pathogen free embryonated egg assessed as survival rate at 0.156 mM preincubated for 1 hr prior to inoculation measured after 48 hrs (reference value: 0%). It counts as functional.
Series [5] has as its system Influenza A virus. Briefly: Antiviral activity against Influenza A virus H5N2 infected in specific pathogen free embryonated egg assessed as survival rate at 0.039 mM preincubated for 1 hr prior to inoculation measured after 48 hrs (reference value: 0%). The class given is functional.
Series [6] has as its system Influenza A virus. Briefly: Antiviral activity against Influenza A virus H5N2 infected in specific pathogen free embryonated egg assessed as survival rate at 10 mM preincubated for 1 hr prior to inoculation measured after 72 hrs (reference value: 0%). The class given is functional.
The test system of series [7] is Influenza A virus. Briefly: Antiviral activity against Influenza A virus H5N2 infected in specific pathogen free embryonated egg assessed as survival rate at 2.5 mM preincubated for 1 hr prior to inoculation measured after 72 hrs (reference value: 0%). It counts as functional.
Series [8] deals with Influenza A virus. Briefly: Antiviral activity against Influenza A virus H5N2 infected in specific pathogen free embryonated egg assessed as survival rate at 0.625 mM preincubated for 1 hr prior to inoculation measured after 72 hrs (reference value: 0%). It counts as functional.
Series [9] deals with Influenza A virus. Briefly: Antiviral activity against Influenza A virus H5N2 infected in specific pathogen free embryonated egg assessed as survival rate at 0.156 mM preincubated for 1 hr prior to inoculation measured after 72 hrs (reference value: 0%). It counts as functional.
In series [10] the test system is Influenza A virus. Kind of series: Antiviral activity against Influenza A virus H5N2 infected in specific pathogen free embryonated egg assessed as survival rate at 0.039 mM preincubated for 1 hr prior to inoculation measured after 72 hrs (reference value: 0%). It counts as functional.
Series [11] is described as follows: MRT (0 to infinity) in Sprague-Dawley rat at 2 mg/kg, iv by LC-MS analysis. The conditions noted are these: in vivo. It counts as ADME, organism-based.
Series [12] has as its system Rattus norvegicus. Kind of series: Half life in Sprague-Dawley rat at 2 mg/kg, iv by LC-MS analysis. The class given is ADME, organism-based. To be noted: in vivo.
Series [13] relates to Rattus norvegicus. Briefly: Tmax in Sprague-Dawley rat at 2 mg/kg, iv by LC-MS analysis. The class given is ADME, organism-based. The conditions noted are these: in vivo.
Series [14] has as its system Rattus norvegicus. Briefly: Clearance in Sprague-Dawley rat at 2 mg/kg, iv by LC-MS analysis. It counts as ADME, organism-based. To be noted: in vivo.
Series [15] concerns Rattus norvegicus. Kind of series: Volume of distribution in Sprague-Dawley rat at 2 mg/kg, iv by LC-MS analysis. It counts as ADME, organism-based. The conditions noted are these: in vivo.
Series [16] relates to Rattus norvegicus. Kind of series: Bioavailability in Sprague-Dawley rat at 2 mg/kg, iv by LC-MS analysis. It counts as ADME, organism-based. To be noted: in vivo.
The nature of series [17]: MRT (0 to infinity) in Sprague-Dawley rat at 20 mg/kg, po by LC-MS analysis. The class given is ADME, organism-based. The conditions noted are these: in vivo.
Series [18] concerns Rattus norvegicus. Briefly: Half life in Sprague-Dawley rat at 20 mg/kg, po by LC-MS analysis. The class given is ADME, organism-based. To be noted: in vivo.
Series [19] relates to Rattus norvegicus. Kind of series: Tmax in Sprague-Dawley rat at 20 mg/kg, po by LC-MS analysis. The class given is ADME, organism-based. The conditions noted are these: in vivo.
Series [20] deals with Rattus norvegicus. Briefly: Cmax in Sprague-Dawley rat at 20 mg/kg, po by LC-MS analysis. The conditions noted are these: in vivo. Also noted: dose 20 mg/kg, route oral. The class given is ADME, organism-based.
Series [21] can be described thus: Oral bioavailability in Sprague-Dawley rat at 20 mg/kg by LC-MS analysis. It counts as ADME, organism-based. To be noted: in vivo.
The test system of series [22] is Mus musculus. Kind of series: Acute toxicity in Kunming mouse at 2000 mg/kg, ig after 1 week. It counts as organism-based. The conditions noted are these: in vivo, po, 168 h.
Series [23] relates to Mus musculus. Briefly: Acute toxicity in Kunming mouse assessed as gross lesions at 2000 mg/kg, ig after 1 week. The class given is organism-based. To be noted: in vivo, po, 168 h.
In another series the test system is Influenza B virus. The conditions noted are these: mdck.
The species named for series [24] is Rattus norvegicus. To be noted: in vivo, iv, 2 mg/kg.
The species entered for series [25] is Rattus norvegicus. The conditions noted are these: in vivo, po, 20 mg/kg.
Series [26] can be described thus: in vivo. To be noted: Sprague-Dawley, rat, iv, 2 mg/kg.
A short description of series [27]: in vivo. To be noted: Sprague-Dawley, rat, po, 20 mg/kg.
A short description of series [28]: in vitro. To be noted: chicken, chicken embryo fibroblasts.
Series [29] can be described thus: in vitro. The conditions noted are these: dog, MDCK cells.
The nature of series [30]: in vitro. To be noted: human, plasma.
Series [31] is described as follows: in vitro. The conditions noted are these: human, plasma. The source holds these as a separate data set.
Series [32] can be described thus: in vitro. To be noted: human, plasma. The source holds these as a separate data set.
Series [33] can be described thus: in vitro. To be noted: human, plasma. This is another data set of the same source.
Series [34] in a line: in vitro. To be noted: human, plasma. This is another data set of the same source.
The nature of series [35]: in vitro. To be noted: human, liver microsomes.
Series [36] in a line: in vitro. The conditions noted are these: human, liver microsomes. The source holds these as a separate data set. For orientation: Microsomes from liver hold many membrane-bound enzymes, among them those of drug oxidation.
Series [37] is described as follows: in vitro. The conditions noted are these: human, liver microsomes. The source holds these as a separate data set.
Series [38] in a line: in vitro. To be noted: human, liver microsomes. This is another data set of the same source.
Series [39] relates to Influenza A virus. Briefly: microbe, parasite or virus in culture. To be noted: A/Puerto Rico/8/1934(H1N1), MDCK, 48 h.
The subject of series [40] is Influenza A virus. Briefly: microbe, parasite or virus in culture. The conditions noted are these: MDCK, 48 h.
The conditions of series [41]: human, microsomes, 20 min.

By MRT inf is commonly meant the average time that molecules of a dose stay in the body. In general, Tmax refers to the time at which the peak concentration occurs. One may read the Vd as a proportionality between amount in the body and measured concentration, not a real space. Broadly, the Cmax is the highest concentration seen after dosing. What is called bioavailability is the share of a dose that reaches the circulation, judged against a reference dose that is usually intravenous. A high value points to much systemic uptake. The term EC50 denotes the concentration giving half of the maximal effect. A high value points to weaker potency. What is called AUC is the area under the concentration-time curve, a measure of exposure. The low end stands for less exposure, the high end for more exposure. For orientation: AUC(0-t) means the area under the concentration-time curve up to a stated or last time point. A word on the half-life: it is how long it takes for the measured level to halve. A high value points to slow decline. One may read the microsomal CLint as the capacity of the preparation to metabolise the compound, expressed as a volume cleared per time. As for `CCC(CC)O[C@@H]1C=C(C(=O)O)C[C@H](NCc2ccc(Sc3ccccc3)cc2)[C@H]1NC(C)=O`, the survival at 10000 µM with Influenza A virus [1] came out at 100%; in the series with Influenza A virus [6] it was 60%. Also, the survival at 2500 µM in the series with Influenza A virus [2] turned out to be 80%; with Influenza A virus [7], 20%. In addition, the survival at 625 µM in the series with Influenza A virus [3] worked out at 60%; with Influenza A virus [8], 0%. Also, the survival at 156 µM in the series with Influenza A virus [4] and in the series with Influenza A virus [9] was 0% in each case. Besides, the survival at 39 µM in the series with Influenza A virus [5] and in the series with Influenza A virus [10] was 0% each time. In addition, the MRT inf in series [11] came to 2.03 h; in series [17], 4.05 h. For the same compound, the results for the t1/2 in the series with Rattus norvegicus [12] and in the series with Rattus norvegicus [18] were 1.76 h and 3.82 h, respectively. In addition, the Tmax with Rattus norvegicus [13] was 4.98 min; in the series on Rattus norvegicus [19], 0.83 h. Also, the CL in the series with Rattus norvegicus [14] came out at 1.41 mL/h/kg. In the series on Rattus norvegicus [15], the Vd is 3.51 L/kg. The F in the series with Rattus norvegicus [16] is recorded as 100%. For the same compound, the Cmax with Rattus norvegicus [20] was 407 µg/mL. The same compound had a bioavailability in [21] of 10.3%. The Activity result with Mus musculus [22] and in the series on Mus musculus [23] was “Non-Toxic” throughout. The EC50 was found to be 19 µM in the series on Influenza B virus, 0.06 µM in the series on Influenza A virus [39] and 71 µM in the series with Influenza A virus [40]. Moreover, the AUC in the series filed under Rattus norvegicus [24] came to 1464.41 ng·h/mL; in the series filed under Rattus norvegicus [25] it was 1558.63 ng·h/mL. Further, the figures for the AUC(0-t) in “in vivo [26]” and in the series “in vivo [27]” were 1460 ng·h/mL and 1500 ng·h/mL, respectively. The CC50 at 48 h is greater than 200 µM in “in vitro [28]” and greater than 250 µM in the series “in vitro [29]”. In the series “in vitro [30]”, the fraction remaining at 10 min, 2 µM was 102%. Moreover, the share remaining at 0.5 h, 2 µM in the series “in vitro [31]” is 100%. Also, in “in vitro [32]”, the share remaining at 1 h, 2 µM was found to be 100%. For the same compound, the share remaining at 2 h, 2 µM in “in vitro [33]” was found to be 91.6%. In “in vitro [34]”, this compound showed a half-life at 2 µM greater than 4.82 h. In the series “in vitro [35]”, the half-life at 2 uL was greater than 2.42 h. In the series “in vitro [36]”, this compound came in with a microsomal CLint at 20 min, 2 uL of less than 9.6 µL/min/mg. The amount remaining at 1 h, 2 uL in the series “in vitro [37]” stood at 101%; in “in vitro [38]”, 115%.
`O=C(O)Cc1ccccc1Nc1c(Cl)cccc1Cl` [DICLOFENAC] had a CLH in series [41] of 5.28 mL/h/kg. The half-life at 2 uL in the series “in vitro [35]” came out at 0.237 h. Further, in “in vitro [36]”, the microsomal CLint at 20 min, 2 uL is 97.7 µL/min/mg. The share remaining at 1 h, 2 uL in “in vitro [37]” turned out to be 5.4%; in the series “in vitro [38]”, 103%.
